# Assay results from publication PMC8787096, “Antagonism of nicotinic acetycholinergic receptors by CN‐105, an apoE‐mimetic peptide reduces stroke‐induced excitotoxicity” (Clinical and Translational Medicine, 2022).
# Read-outs that look alike come from different tables or passages of the source. Residues, ends and D or L forms follow the SMILES beside them.
# B1: CN‐105 (peptide)
# peptide: Ac-VSRRR-NH2
# Experiments:
# α7-nAChR [1] = biological target: T1, α7-nAChR (Homo sapiens, UniProt P36544); experiment: Patch clamp of ACh-induced currents, HEK293 cells stably expressing nAChR α7/RIC3; assay type: cell-based; details: for %Inhibition of α7-nAChR: peptide 200 nM, relative to currents induced by 9 μM ACh
# α1β1δε-nAChR = biological target: T2, α1β1δε-nAChR (Homo sapiens, UniProt P02708+P11230+Q04844+Q07001); experiment: Electrophysiology of oocytes injected with nAChR α, β, δ and ε cRNA; assay type: cell-based
# T2 construct: expressed in transfected cells
# C57BL6 mice = experiment: Mortality of C57BL6 mice after a single tail vein injection; assay type: in vivo
# in vivo [2] = details: both, monkey, iv
# [3] = system: rat hippocampal brain slices; experiment: EPSC recording (evoked, spontaneous, miniature) in hippocampal brain slices; assay type: cell-based
# Cynologous monkey = experiment: GLP acute toxicology study, iv infusion; assay type: in vivo
# Description: The acute toxicology study of CN-105 was carried out at the facility of CTI Biotechnology (China) in accordance with GLP guidelines of the National Medical Product Administration (NMPA) of China. Briefly, six Cynologous (Cyn) monkeys were assigned to three dosing groups (n = 2/group, M:F= 1:1). The animals were given an iv. infusion of saline (Group 1), 25 mg/kg CN-105 (Group 2) or 100 mg/kg CN-105 (Group 3) twice a day. The infusion volume was 20mL/kg, while the infusion rate was 30min. Forty SD rats were assigned to four dosing groups (n = 10/group, M:F= 1:1) and were given an iv. injection of saline (Group 1), 15 mg/kg CN-105 (Group 2), 30 mg/kg CN-105 (Group 3) or 45 mg/kg CN-105 (Group 4) twice a day. The infusion volume was 5mL/kg, while the infusion rate was 10min. Animals were monitored for a variety of behavioral, physiological, histological and serological endpoints.
# α4β2-nAChR = biological target: T3, α4β2-nAChR (Homo sapiens, UniProt P17787+P43681); experiment: Patch clamp of HEK293 cells transiently expressing nAChR α4β2; assay type: cell-based; details: four-parameter logistic fit; read-out: IC50, inhibition of α4β2-nAChR
# T3 construct: expressed in transfected cells; host or cells: HEK293 (transient)
# Description: The patch clamp recording was performed on the third or fourth day after transfection based on the expression level of co-transfected GFP gene. Detailed description of the transfection procedures can be found in the Supporting information.
# nAChR α4β2: HEK293 cells were seeded on poly-D-lysine-coated coverslips placed in a 24-well plate at a density of 8×10^3 cells per well. Cells were transfected with nAChR α4/nAChR β2/GFP with the ratio 2:2:1. The X-tremeGENE HP DNA (Roche) was used for transfection, and the ratio of plasmid to transfection reagent was 1 μg: 2 μL.
# NMDA receptor = experiment: Glutamate-induced currents in HEK293 cells stably expressing NMDA receptor; assay type: cell-based
# Source text: (§1) Figure S5. Amperograms of CN-105's effect on GluR (AMPA-R) in primary rat hippocampal neuronal cultures (Left) and on GluN (NMDA-R) in a culture of HEK293 cells stably expressing NMDA receptor (Right).
# [4] = monkey, in vivo, iv
# in vivo [5] = details: both, SD, rat, iv
# [6] = rat, in vivo, iv
# [7] = system: SD rats, transient ischemic stroke; experiment: Transient middle cerebral artery occlusion (t-MCAO) model; assay type: in vivo, rat; details: Day 8; for Infarct volume: rat t-MCAO
# Description: Eighty-three Sprague-Dawley (SD) rats were randomly divided into six groups with both sexes as follows: 1) sham group (n=8), 2) vehicle group (n=15), 3) 0.1 mg/kg CN105 (n=15), 4) 0.2 mg/kg CN105 (n=15), 5) 0.4 mg/kg CN-105 (n=15), 6) 6mg/kg edaravone (n=15). Ischemic insult was introduced based on pre-established protocol. Briefly, rats were placed supine under anesthesia, and then the left common carotid arteries were exposed under sterile conditions. A suture was gently inserted into the internal carotid artery through the external carotid artery until the origin of the middle cerebral artery was occluded. The suture thread was removed 90 min after the ischemia, allowing restoration of the blood supply. Animals in the sham group were exposed of the left common carotid artery under anesthesia without ischemic occlusion. A single dose of CN-105 or edaravone were administered intravenously (iv.) 30min after reperfusion. The injection volume was 5mL/kg, given in 2 min. Animals in each group were euthanized at the end of the experiment. Brains were fixed in 10% formalin. The 3 mm-thick coronal brain sections were scanned and imaged to measure the percentage of viable and infarction brain tissue to calculate the percentage of cerebral infarction volume.
# AMPA receptor = experiment: Glutamate-induced currents of AMPA receptor in primary hippocampal neuronal cultures; assay type: cell-based; details: primary rat hippocampal neuronal cultures
# Description: Rat primary neuronal culture: Primary neuron cultures were prepared from newborn rats. A mixed culture of hippocampal, cortical and thalamic neurons was used for calcium imaging assays. For patch clamp studies, hippocampal neurons from the CA1 region were extracted. The trypsinized brain tissue was incubated at 37°C for 20 minutes before the removal of the enzyme. The cells were washed three times with PBS and suspended with fresh media before being plated on poly-D-lysine-coated coverslips. After 4 h, the media was replaced by Neurobasal+B27+L-Glu (Thermo scientific, USA). Half of the culture medium was changed after 24 h before switched to a 72-hr medium change routine.
# as §1
# α7-nAChR [8] = biological target: T1, α7-nAChR
# T1 sequence (P36544 23-502): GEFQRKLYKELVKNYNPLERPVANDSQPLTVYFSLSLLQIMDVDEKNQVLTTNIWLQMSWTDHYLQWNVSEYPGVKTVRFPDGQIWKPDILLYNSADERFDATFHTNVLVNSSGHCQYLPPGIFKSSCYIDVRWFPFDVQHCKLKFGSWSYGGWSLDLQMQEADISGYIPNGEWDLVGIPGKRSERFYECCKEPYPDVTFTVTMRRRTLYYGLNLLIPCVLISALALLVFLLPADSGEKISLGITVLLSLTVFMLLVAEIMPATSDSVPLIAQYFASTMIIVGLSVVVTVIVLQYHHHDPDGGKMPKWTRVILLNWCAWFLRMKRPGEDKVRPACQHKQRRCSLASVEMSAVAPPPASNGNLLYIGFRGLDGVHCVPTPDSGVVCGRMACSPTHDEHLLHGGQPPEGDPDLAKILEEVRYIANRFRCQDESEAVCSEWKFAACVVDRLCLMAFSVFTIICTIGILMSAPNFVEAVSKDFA
# T2 sequence (P02708 21-457): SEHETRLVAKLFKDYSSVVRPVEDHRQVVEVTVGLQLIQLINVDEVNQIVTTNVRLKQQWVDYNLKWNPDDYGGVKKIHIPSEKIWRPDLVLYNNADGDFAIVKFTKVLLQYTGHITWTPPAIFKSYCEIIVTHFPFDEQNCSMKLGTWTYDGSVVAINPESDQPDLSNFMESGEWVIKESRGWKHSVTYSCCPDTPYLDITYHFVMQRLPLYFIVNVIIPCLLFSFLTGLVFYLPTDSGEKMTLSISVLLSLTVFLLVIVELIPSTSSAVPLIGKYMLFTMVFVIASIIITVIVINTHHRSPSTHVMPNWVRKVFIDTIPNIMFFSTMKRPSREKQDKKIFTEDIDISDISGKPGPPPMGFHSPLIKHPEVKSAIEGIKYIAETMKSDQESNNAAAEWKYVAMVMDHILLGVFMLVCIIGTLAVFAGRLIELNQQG
# T2 sequence (P11230 24-501): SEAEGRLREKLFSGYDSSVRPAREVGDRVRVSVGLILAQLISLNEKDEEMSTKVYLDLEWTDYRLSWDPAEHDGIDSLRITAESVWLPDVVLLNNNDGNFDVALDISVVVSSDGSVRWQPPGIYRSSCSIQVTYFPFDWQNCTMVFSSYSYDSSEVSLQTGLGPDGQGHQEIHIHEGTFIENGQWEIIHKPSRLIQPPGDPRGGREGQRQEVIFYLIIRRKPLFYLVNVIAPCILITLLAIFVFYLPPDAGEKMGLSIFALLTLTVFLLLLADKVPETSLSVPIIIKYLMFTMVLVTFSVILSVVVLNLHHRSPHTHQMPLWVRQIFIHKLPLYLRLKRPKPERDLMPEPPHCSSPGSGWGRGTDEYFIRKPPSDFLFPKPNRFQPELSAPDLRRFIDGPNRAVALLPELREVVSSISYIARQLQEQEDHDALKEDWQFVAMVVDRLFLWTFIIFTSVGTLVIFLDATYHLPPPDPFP
# T2 sequence (Q07001 22-517): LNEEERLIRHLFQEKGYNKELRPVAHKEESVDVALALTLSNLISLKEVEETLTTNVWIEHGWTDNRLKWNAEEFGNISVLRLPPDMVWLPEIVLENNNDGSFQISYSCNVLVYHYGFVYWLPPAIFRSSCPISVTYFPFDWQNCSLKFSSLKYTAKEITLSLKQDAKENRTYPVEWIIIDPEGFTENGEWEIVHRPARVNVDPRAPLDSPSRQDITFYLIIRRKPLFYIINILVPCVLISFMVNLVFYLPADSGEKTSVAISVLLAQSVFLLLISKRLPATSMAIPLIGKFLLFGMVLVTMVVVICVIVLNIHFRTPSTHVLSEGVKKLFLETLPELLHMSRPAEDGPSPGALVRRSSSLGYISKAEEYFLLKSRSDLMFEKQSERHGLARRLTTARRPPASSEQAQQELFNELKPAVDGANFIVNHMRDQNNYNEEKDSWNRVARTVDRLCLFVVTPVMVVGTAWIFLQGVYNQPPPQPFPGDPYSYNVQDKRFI
# T2 sequence (Q04844 21-493): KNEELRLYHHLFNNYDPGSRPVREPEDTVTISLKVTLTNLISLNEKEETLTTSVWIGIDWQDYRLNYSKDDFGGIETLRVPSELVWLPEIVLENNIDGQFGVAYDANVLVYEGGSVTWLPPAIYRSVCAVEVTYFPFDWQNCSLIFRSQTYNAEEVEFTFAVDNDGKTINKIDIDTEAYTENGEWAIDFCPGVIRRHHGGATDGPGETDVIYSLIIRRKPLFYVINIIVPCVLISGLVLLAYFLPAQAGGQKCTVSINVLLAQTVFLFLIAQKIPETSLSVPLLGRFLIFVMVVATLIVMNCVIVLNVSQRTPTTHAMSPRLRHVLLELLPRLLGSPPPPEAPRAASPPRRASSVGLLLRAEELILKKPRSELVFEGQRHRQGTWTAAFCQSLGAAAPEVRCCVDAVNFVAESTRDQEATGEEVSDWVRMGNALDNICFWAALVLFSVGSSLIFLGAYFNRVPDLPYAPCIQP
# T3 sequence (P43681 29-627 limits assumed): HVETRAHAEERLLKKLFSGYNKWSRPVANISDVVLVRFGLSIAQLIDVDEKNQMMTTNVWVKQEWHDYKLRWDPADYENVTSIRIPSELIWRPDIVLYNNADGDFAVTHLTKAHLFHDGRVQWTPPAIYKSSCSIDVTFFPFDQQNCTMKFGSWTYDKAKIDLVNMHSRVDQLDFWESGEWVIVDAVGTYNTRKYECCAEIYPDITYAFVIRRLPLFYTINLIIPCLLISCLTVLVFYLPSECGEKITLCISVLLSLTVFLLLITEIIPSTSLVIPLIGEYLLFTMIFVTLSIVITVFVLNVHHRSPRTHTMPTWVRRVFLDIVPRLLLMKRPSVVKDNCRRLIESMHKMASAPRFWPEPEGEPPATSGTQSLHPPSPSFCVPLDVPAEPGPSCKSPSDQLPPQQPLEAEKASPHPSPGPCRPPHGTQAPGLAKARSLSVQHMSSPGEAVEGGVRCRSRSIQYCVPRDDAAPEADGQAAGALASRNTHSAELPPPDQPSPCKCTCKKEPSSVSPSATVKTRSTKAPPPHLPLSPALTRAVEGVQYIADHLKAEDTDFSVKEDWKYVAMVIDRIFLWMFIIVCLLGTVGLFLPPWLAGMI
# T3 sequence (P17787 26-502): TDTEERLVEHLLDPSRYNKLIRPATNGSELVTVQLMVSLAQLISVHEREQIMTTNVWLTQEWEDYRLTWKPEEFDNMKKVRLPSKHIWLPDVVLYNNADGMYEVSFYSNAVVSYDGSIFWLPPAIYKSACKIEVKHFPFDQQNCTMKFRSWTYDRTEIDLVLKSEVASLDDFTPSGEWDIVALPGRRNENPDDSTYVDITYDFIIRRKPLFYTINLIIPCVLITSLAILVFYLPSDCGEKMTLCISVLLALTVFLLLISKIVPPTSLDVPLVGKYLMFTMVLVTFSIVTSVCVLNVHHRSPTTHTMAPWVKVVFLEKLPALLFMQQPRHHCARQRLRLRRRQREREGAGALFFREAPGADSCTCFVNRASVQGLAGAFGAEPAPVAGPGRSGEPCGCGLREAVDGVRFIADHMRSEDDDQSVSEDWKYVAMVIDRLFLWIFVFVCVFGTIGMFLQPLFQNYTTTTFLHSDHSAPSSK
molecule,measurement,setting,value
CC(=O)N[C@@H](C)C(=O)N[C@@H](CO)C(=O)N[C@@H](CCCNC(=N)N)C(=O)N[C@@H](CCCNC(=N)N)C(=O)N[C@@H](CCCNC(=N)N)C(N)=O [Ac-ASRRR-NH2] (Ac-ASRRR-NH2),%Inhibition of α7-nAChR,α7-nAChR [1],7.4%
CSCC[C@H](NC(C)=O)C(=O)N[C@@H](CO)C(=O)N[C@@H](CCCNC(=N)N)C(=O)N[C@@H](CCCNC(=N)N)C(=O)N[C@@H](CCCNC(=N)N)C(N)=O [Ac-MSRRR-NH2] (Ac-MSRRR-NH2),%Inhibition of α7-nAChR,α7-nAChR [1],38.3%
CC(=O)N[C@@H](CCCNC(=N)N)C(=O)N[C@@H](CO)C(=O)N[C@@H](CCCCN)C(=O)N[C@@H](CCCNC(=N)N)C(=O)N[C@@H](CCCNC(=N)N)C(N)=O [Ac-RSKRR-NH2] (Ac-RSKRR-NH2),%Inhibition of α7-nAChR,α7-nAChR [1],9.3%
CC(=O)N[C@H](C(=O)N[C@@H](CS)C(=O)N[C@@H](CCCNC(=N)N)C(=O)N[C@@H](CCCNC(=N)N)C(=O)N[C@@H](CCCNC(=N)N)C(N)=O)C(C)C [Ac-VCRRR-NH2] (Ac-VCRRR-NH2),%Inhibition of α7-nAChR,α7-nAChR [1],5.9%
CC(=O)N[C@H](C(=O)N[C@@H](CO)C(=O)N[C@@H](CCCCN)C(=O)N[C@@H](CCCCN)C(=O)N[C@@H](CCCNC(=N)N)C(N)=O)C(C)C [Ac-VSKKR-NH2] (Ac-VSKKR-NH2),%Inhibition of α7-nAChR,α7-nAChR [1],48.9%
"CC(=O)N[C@H](C(=O)N[C@@H](CO)C(=O)N[C@@H](CCCNC(=N)N)C(=O)N[C@@H](CCCNC(=N)N)C(=O)N[C@@H](CCCNC(=N)N)C(N)=O)C(C)C [CN-105, Ac-VSRRR-NH2] (Ac-VSRRR-NH2)",IC50,α1β1δε-nAChR,2100 nM
same,Observation after removal of isoflurane anaesthesia,"C57BL6 mice; 50 mg/kg, intubated and mechanically ventilated",extended sedation
same,Symptoms at lethal dose,"C57BL6 mice; C57BL6 mice, 25 mg/kg tail vein",spasm and respiratory suppression
same,Mortality under intubation and mechanical ventilation,"C57BL6 mice; C57BL6 mice, 50 mg/kg, mechanical ventilation with isoflurane anaesthesia",not associated with mortality
same,LD80,"C57BL6 mice; C57BL6 mice, single tail vein injection, autonomous respiration",25 mg/kg
same,AUC(0-t),in vivo [2]; 0.1 mg/kg,348 ± 33.7 ng·h/mL
same,Cmax,in vivo [2]; 0.1 mg/kg,320 ± 20.2 ng/mL
same,Tmax,in vivo [2]; 0.1 mg/kg,30 min
same,Vd,in vivo [2]; 0.1 mg/kg,0.564 ± 0.271 L/kg
same,clearance,in vivo [2]; 0.1 mg/kg,4.75 mL/min/kg
same,half-life,in vivo [2]; 0.1 mg/kg,82.8 ± 39.6 min
same,AUC(0-t),in vivo [2]; 0.5 mg/kg,1650 ± 209 ng·h/mL
same,Cmax,in vivo [2]; 0.5 mg/kg,1500 ± 251 ng/mL
same,Tmax,in vivo [2]; 0.5 mg/kg,30 min
same,Vd,in vivo [2]; 0.5 mg/kg,0.642 ± 0.086 L/kg
same,clearance,in vivo [2]; 0.5 mg/kg,5.12 mL/min/kg
same,half-life,in vivo [2]; 0.5 mg/kg,87.6 ± 10.3 min
same,AUC(0-t),in vivo [2]; 2.5 mg/kg,8300 ± 1200 ng·h/mL
same,Cmax,in vivo [2]; 2.5 mg/kg,7460 ± 1190 ng/mL
same,Tmax,in vivo [2]; 2.5 mg/kg,30 min
same,Vd,in vivo [2]; 2.5 mg/kg,0.691 ± 0.107 L/kg
same,clearance,in vivo [2]; 2.5 mg/kg,5.08 mL/min/kg
same,half-life,in vivo [2]; 2.5 mg/kg,94.8 ± 12 min
same,Spontaneous EPSC (sEPSC) frequency,"[3]; rat hippocampal brain slice, CN-105 200 μM as printed in Figure 3 legend",attenuation
same,Evoked EPSC mediated by NMDA receptor versus control,"[3]; rat hippocampal brain slices, holding +50 mV",significantly lower
same,Evoked EPSC mediated by AMPA receptor versus control,"[3]; rat hippocampal brain slices, holding -70 mV",significantly lower
same,NMDA receptor-mediated EPSC with tetrodotoxin (mEPSC),[3]; tetrodotoxin added to block all AP firings,no longer able to affect
same,Time of gradual recovery to normal activity (about two serum clearance half-lives),Cynologous monkey; supratherapeutic dosing,~4 h
same,Symptoms after supratherapeutic dosing,Cynologous monkey; supratherapeutic iv dosing,mydriasis and ptosis
same,IC50,α4β2-nAChR,500 nM
same,"Direct effect on glutamate-induced currents, NMDA receptor",NMDA receptor,did not directly inhibit
same,Kel,[4]; 0.1 mg/kg,0.566 ± 0.156 h⁻¹
same,Kel,[4]; 0.5 mg/kg,0.481 ± 0.058 h⁻¹
same,Kel,[4]; 2.5 mg/kg,0.445 ± 0.054 h⁻¹
same,Effect on ACh induced current,"α7-nAChR [1]; 10 μM CN-105, HEK293 overexpressing α7-nAChR",strongly suppressed
same,IC50,"α7-nAChR [1]; four-parameter logistic fit, read-out: IC50, inhibition of α7-nAChR",31 nM
same,%Inhibition of α7-nAChR,α7-nAChR [1],61.4%
same,Voltage of maximal inhibition,"α7-nAChR [1]; voltage dependency, CN-105 40 nM",–80 mV
same,AUC(0-t),in vivo [5]; 0.1 mg/kg,125 ± 14.3 ng·h/mL
same,C0,in vivo [5]; 0.1 mg/kg,560 ± 181 ng/mL
same,Cmax,in vivo [5]; 0.1 mg/kg,410 ± 90.5 ng/mL
same,Tmax,in vivo [5]; 0.1 mg/kg,2.3 ± 0.948 min
same,Vd,in vivo [5]; 0.1 mg/kg,0.385 ± 0.0711 L/kg
same,clearance,in vivo [5]; 0.1 mg/kg,13.2 mL/min/kg
same,half-life,in vivo [5]; 0.1 mg/kg,20.2 ± 2.52 min
same,AUC(0-t),in vivo [5]; 0.3 mg/kg,504 ± 56.6 ng·h/mL
same,C0,in vivo [5]; 0.3 mg/kg,2250 ± 463 ng/mL
same,Cmax,in vivo [5]; 0.3 mg/kg,1570 ± 211 ng/mL
same,Tmax,in vivo [5]; 0.3 mg/kg,2 min
same,Vd,in vivo [5]; 0.3 mg/kg,0.342 ± 0.0363 L/kg
same,clearance,in vivo [5]; 0.3 mg/kg,9.8 mL/min/kg
same,half-life,in vivo [5]; 0.3 mg/kg,24.3 ± 3.3 min
same,AUC(0-t),in vivo [5]; 1 mg/kg,1800 ± 192 ng·h/mL
same,C0,in vivo [5]; 1 mg/kg,7680 ± 1740 ng/mL
same,Cmax,in vivo [5]; 1 mg/kg,5320 ± 906 ng/mL
same,Tmax,in vivo [5]; 1 mg/kg,2 min
same,Vd,in vivo [5]; 1 mg/kg,0.5 ± 0.085 L/kg
same,clearance,in vivo [5]; 1 mg/kg,9.28 mL/min/kg
same,half-life,in vivo [5]; 1 mg/kg,37.2 ± 3.87 min
same,AUC(0-t),in vivo [5]; 3 mg/kg,5920 ± 508 ng·h/mL
same,C0,in vivo [5]; 3 mg/kg,24000 ± 2360 ng/mL
same,Cmax,in vivo [5]; 3 mg/kg,17000 ± 1400 ng/mL
same,Tmax,in vivo [5]; 3 mg/kg,2 min
same,Vd,in vivo [5]; 3 mg/kg,0.645 ± 0.137 L/kg
same,clearance,in vivo [5]; 3 mg/kg,8.48 mL/min/kg
same,half-life,in vivo [5]; 3 mg/kg,52.8 ± 10.2 min
same,Kel,[6]; 0.1 mg/kg,2.09 ± 0.258 h⁻¹
same,Kel,[6]; 0.3 mg/kg,1.73 ± 0.203 h⁻¹
same,Kel,[6]; 1 mg/kg,1.13 ± 0.106 h⁻¹
same,Kel,[6]; 3 mg/kg,0.823 ± 0.204 h⁻¹
same,Density of viable neurons (NeuN+ cells),[7]; 1 mm2 area at infarct margin,higher
same,Number of β3-GABAAR+ cells at infarct margin,[7]; 1 mm2 area,unaffected
same,Density of α7-nAChR+ cells at infarct margin versus vehicle,"[7]; primary somatosensory cortex, 1 mm2 area",higher density
same,Infarct volume,[7]; 0.1 to 0.4 mg/kg single iv 30 min after reperfusion,significantly reduced
same,"Direct effect on glutamate-induced currents, AMPA receptor",AMPA receptor,did not directly inhibit
"CC1=NN(c2ccccc2)C(=O)C1 [edaravone, reference compound]",Infarct volume,[7]; edaravone 6 mg/kg single iv 30 min after reperfusion,similar
apoE130‐149 (peptide),"IC50 of inhibition of α7‐nAChR current (electrophysiology); given only as the concentration used, close to the IC50",α7-nAChR [8],500 nM
B1,"IC50 of inhibition of α7‐nAChR current (electrophysiology); given only as the concentration used, close to the IC50",α7-nAChR [8],40 nM
